Results taken from PubChem BioAssay (NCI).
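How tested: cells in 96-well plates exposed to compound for 48 hours at five concentrations. GI50 is the concentration that inhibits growth by half. TGI is the concentration that stops growth completely.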

Key:
Assay in all cases: inhibition of tumour cell growth, NCI panel, 48 h
TK-10 renal = test system: TK-10 renal
HT29 colon = test system: HT29 colon
NCI-H23 lung = test system: NCI-H23 lung
PC-3 prostate = test system: PC-3 prostate
RXF 393 renal = test system: RXF 393 renal
NCI-H460 lung = test system: NCI-H460 lung
OVCAR-3 ovarian = test system: OVCAR-3 ovarian
COLO 205 colon = test system: COLO 205 colon
MDA-MB-435 = test system: MDA-MB-435
UACC-62 melanoma = test system: UACC-62 melanoma
K-562 leukemia = test system: K-562 leukemia
MDA-MB-231 breast = test system: MDA-MB-231 breast
SK-MEL-5 melanoma = test system: SK-MEL-5 melanoma
A498 renal = test system: A498 renal
SF-539 CNS = test system: SF-539 CNS
LOX IMVI melanoma = test system: LOX IMVI melanoma
A549 NSCLC = test system: A549 NSCLC
SF-295 CNS = test system: SF-295 CNS
SK-MEL-28 melanoma = test system: SK-MEL-28 melanoma
EKVX NSCLC = test system: EKVX NSCLC
SW-620 colon = test system: SW-620 colon
SK-MEL-2 melanoma = test system: SK-MEL-2 melanoma
NCI-H226 lung = test system: NCI-H226 lung
HOP-62 NSCLC = test system: HOP-62 NSCLC
UACC-257 melanoma = test system: UACC-257 melanoma
IGROV1 ovarian = test system: IGROV1 ovarian
NCI-H522 lung = test system: NCI-H522 lung
KM12 colon = test system: KM12 colon
SNB-19 CNS = test system: SNB-19 CNS
MOLT-4 leukemia = test system: MOLT-4 leukemia
T-47D breast = test system: T-47D breast
OVCAR-4 ovarian = test system: OVCAR-4 ovarian
786-0 renal = test system: 786-0 renal
DU-145 prostate = test system: DU-145 prostate
SNB-75 CNS = test system: SNB-75 CNS
MALME-3M melanoma = test system: MALME-3M melanoma
UO-31 renal = test system: UO-31 renal
CAKI-1 renal = test system: CAKI-1 renal
MCF7 breast = test system: MCF7 breast
SN12C renal = test system: SN12C renal
RPMI-8226 leukemia = test system: RPMI-8226 leukemia
HCT-15 colon = test system: HCT-15 colon
HCT-116 colon = test system: HCT-116 colon
SK-OV-3 ovarian = test system: SK-OV-3 ovarian
U251 CNS = test system: U251 CNS
OVCAR-5 ovarian = test system: OVCAR-5 ovarian
NCI/ADR-RES ovarian = test system: NCI/ADR-RES ovarian
OVCAR-8 ovarian = test system: OVCAR-8 ovarian
HL-60(TB) leukemia = test system: HL-60(TB) leukemia
ACHN renal = test system: ACHN renal
HCC-2998 colon = test system: HCC-2998 colon
M14 melanoma = test system: M14 melanoma
HOP-92 NSCLC = test system: HOP-92 NSCLC
HS 578T breast = test system: HS 578T breast
SF-268 CNS = test system: SF-268 CNS

O=c1c2[nH]ccc2nc2n1CCS2 was tested, and the GI50 (TK-10 renal) was > 100 µM, the TGI (TK-10 renal) was > 100 µM and the GI50 (HT29 colon) was > 100 µM. The TGI (HT29 colon) was > 100 µM, the GI50 (NCI-H23 lung) was > 100 µM and the TGI (NCI-H23 lung) was > 100 µM. The GI50 (PC-3 prostate) was > 100 µM, the TGI (PC-3 prostate) was > 100 µM and the GI50 (RXF 393 renal) was > 100 µM. For the same molecule, the TGI (RXF 393 renal) was > 100 µM, the GI50 (NCI-H460 lung) was > 100 µM and the TGI (NCI-H460 lung) was > 100 µM. The GI50 (OVCAR-3 ovarian) was > 100 µM, the TGI (OVCAR-3 ovarian) was > 100 µM and the GI50 (COLO 205 colon) was > 100 µM. For the same molecule, the TGI (COLO 205 colon) was > 100 µM, the GI50 (MDA-MB-435) was > 100 µM and the TGI (MDA-MB-435) was > 100 µM. The GI50 (UACC-62 melanoma) was > 100 µM, the TGI (UACC-62 melanoma) was > 100 µM and the GI50 (K-562 leukemia) was > 100 µM. For the same molecule, the TGI (K-562 leukemia) was > 100 µM, the GI50 (MDA-MB-231 breast) was > 100 µM and the TGI (MDA-MB-231 breast) was > 100 µM. The GI50 (SK-MEL-5 melanoma) was 0.324 µM, the TGI (SK-MEL-5 melanoma) was 0.913 µM and the GI50 (A498 renal) was > 100 µM. The TGI (A498 renal) was > 100 µM, the GI50 (SF-539 CNS) was > 100 µM and the TGI (SF-539 CNS) was > 100 µM. For the same molecule, the GI50 (LOX IMVI melanoma) was > 100 µM, the TGI (LOX IMVI melanoma) was > 100 µM and the GI50 (A549 NSCLC) was > 100 µM. For the same molecule, the TGI (A549 NSCLC) was > 100 µM, the GI50 (SF-295 CNS) was > 100 µM and the TGI (SF-295 CNS) was > 100 µM. The GI50 (SK-MEL-28 melanoma) was > 100 µM, the TGI (SK-MEL-28 melanoma) was > 100 µM and the GI50 (EKVX NSCLC) was > 100 µM. The TGI (EKVX NSCLC) was > 100 µM, the GI50 (SW-620 colon) was > 100 µM and the TGI (SW-620 colon) was > 100 µM. The GI50 (SK-MEL-2 melanoma) was > 100 µM, the TGI (SK-MEL-2 melanoma) was > 100 µM and the GI50 (NCI-H226 lung) was > 100 µM. The TGI (NCI-H226 lung) was > 100 µM, the GI50 (HOP-62 NSCLC) was > 100 µM and the TGI (HOP-62 NSCLC) was > 100 µM. The GI50 (UACC-257 melanoma) was > 100 µM, the TGI (UACC-257 melanoma) was > 100 µM and the GI50 (IGROV1 ovarian) was > 100 µM. For the same molecule, the TGI (IGROV1 ovarian) was > 100 µM, the GI50 (NCI-H522 lung) was > 100 µM and the TGI (NCI-H522 lung) was > 100 µM. The GI50 (KM12 colon) was > 100 µM, the TGI (KM12 colon) was > 100 µM and the GI50 (SNB-19 CNS) was > 100 µM. The TGI (SNB-19 CNS) was > 100 µM, the GI50 (MOLT-4 leukemia) was > 100 µM and the TGI (MOLT-4 leukemia) was > 100 µM. For the same molecule, the GI50 (T-47D breast) was > 100 µM, the TGI (T-47D breast) was > 100 µM and the GI50 (OVCAR-4 ovarian) was > 100 µM. For the same molecule, the TGI (OVCAR-4 ovarian) was > 100 µM, the GI50 (786-0 renal) was > 100 µM and the TGI (786-0 renal) was > 100 µM. The GI50 (DU-145 prostate) was > 100 µM, the TGI (DU-145 prostate) was > 100 µM and the GI50 (SNB-75 CNS) was 33.6 µM. The TGI (SNB-75 CNS) was > 100 µM, the GI50 (MALME-3M melanoma) was > 100 µM and the TGI (MALME-3M melanoma) was > 100 µM. The GI50 (UO-31 renal) was > 100 µM, the TGI (UO-31 renal) was > 100 µM and the GI50 (CAKI-1 renal) was > 100 µM. The TGI (CAKI-1 renal) was > 100 µM, the GI50 (MCF7 breast) was > 100 µM and the TGI (MCF7 breast) was > 100 µM. The GI50 (SN12C renal) was > 100 µM, the TGI (SN12C renal) was > 100 µM and the GI50 (RPMI-8226 leukemia) was > 100 µM. The TGI (RPMI-8226 leukemia) was > 100 µM, the GI50 (HCT-15 colon) was > 100 µM and the TGI (HCT-15 colon) was > 100 µM. The GI50 (HCT-116 colon) was > 100 µM, the TGI (HCT-116 colon) was > 100 µM and the GI50 (SK-OV-3 ovarian) was > 100 µM. The TGI (SK-OV-3 ovarian) was > 100 µM, the GI50 (U251 CNS) was > 100 µM and the TGI (U251 CNS) was > 100 µM. The GI50 (OVCAR-5 ovarian) was > 100 µM, the TGI (OVCAR-5 ovarian) was > 100 µM and the GI50 (NCI/ADR-RES ovarian) was > 100 µM. For the same molecule, the TGI (NCI/ADR-RES ovarian) was > 100 µM, the GI50 (OVCAR-8 ovarian) was > 100 µM and the TGI (OVCAR-8 ovarian) was > 100 µM. The GI50 (HL-60(TB) leukemia) was 46.6 µM, the TGI (HL-60(TB) leukemia) was > 100 µM and the GI50 (ACHN renal) was > 100 µM. For the same molecule, the TGI (ACHN renal) was > 100 µM, the GI50 (HCC-2998 colon) was > 100 µM and the TGI (HCC-2998 colon) was > 100 µM. The GI50 (M14 melanoma) was > 100 µM, the TGI (M14 melanoma) was > 100 µM and the GI50 (HOP-92 NSCLC) was > 100 µM. The TGI (HOP-92 NSCLC) was > 100 µM, the GI50 (HS 578T breast) was > 100 µM and the TGI (HS 578T breast) was > 100 µM. The GI50 (SF-268 CNS) was > 100 µM and the TGI (SF-268 CNS) was > 100 µM.
